# Measured values from ChEMBL document CHEMBL5154769, “Discovery of the First-in-Class Agonist-Based SOS1 PROTACs Effective in Human Cancer Cells Harboring Various KRAS Mutations” (J Med Chem, 2022).
# Calls of active or inactive are those of the source. The calls are words filed in the database; no cut-off is given here.
# Columns and labels:
# [1] = molecular target: T1, von Hippel-Lindau disease tumor suppressor/Son of sevenless homolog 2 (Homo sapiens) (UniProt P40337+Q07890); experiment: Protac activity at VHL/SOS2 in human NCI-H358 cells assessed as SOS2 mRNA level at 1 uM incubated for 24 to 72 hr by qRT PCR analysis; assay type: cell-based; settings: time 24-72 hrs
# T1 sequence (P40337 whole entry, looked up): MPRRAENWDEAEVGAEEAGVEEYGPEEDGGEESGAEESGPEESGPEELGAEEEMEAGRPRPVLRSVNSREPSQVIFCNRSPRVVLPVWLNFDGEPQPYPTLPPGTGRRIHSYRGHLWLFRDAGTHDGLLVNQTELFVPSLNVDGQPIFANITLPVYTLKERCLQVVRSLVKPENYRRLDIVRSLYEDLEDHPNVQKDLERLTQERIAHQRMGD
# T1 sequence (Q07890 whole entry, looked up): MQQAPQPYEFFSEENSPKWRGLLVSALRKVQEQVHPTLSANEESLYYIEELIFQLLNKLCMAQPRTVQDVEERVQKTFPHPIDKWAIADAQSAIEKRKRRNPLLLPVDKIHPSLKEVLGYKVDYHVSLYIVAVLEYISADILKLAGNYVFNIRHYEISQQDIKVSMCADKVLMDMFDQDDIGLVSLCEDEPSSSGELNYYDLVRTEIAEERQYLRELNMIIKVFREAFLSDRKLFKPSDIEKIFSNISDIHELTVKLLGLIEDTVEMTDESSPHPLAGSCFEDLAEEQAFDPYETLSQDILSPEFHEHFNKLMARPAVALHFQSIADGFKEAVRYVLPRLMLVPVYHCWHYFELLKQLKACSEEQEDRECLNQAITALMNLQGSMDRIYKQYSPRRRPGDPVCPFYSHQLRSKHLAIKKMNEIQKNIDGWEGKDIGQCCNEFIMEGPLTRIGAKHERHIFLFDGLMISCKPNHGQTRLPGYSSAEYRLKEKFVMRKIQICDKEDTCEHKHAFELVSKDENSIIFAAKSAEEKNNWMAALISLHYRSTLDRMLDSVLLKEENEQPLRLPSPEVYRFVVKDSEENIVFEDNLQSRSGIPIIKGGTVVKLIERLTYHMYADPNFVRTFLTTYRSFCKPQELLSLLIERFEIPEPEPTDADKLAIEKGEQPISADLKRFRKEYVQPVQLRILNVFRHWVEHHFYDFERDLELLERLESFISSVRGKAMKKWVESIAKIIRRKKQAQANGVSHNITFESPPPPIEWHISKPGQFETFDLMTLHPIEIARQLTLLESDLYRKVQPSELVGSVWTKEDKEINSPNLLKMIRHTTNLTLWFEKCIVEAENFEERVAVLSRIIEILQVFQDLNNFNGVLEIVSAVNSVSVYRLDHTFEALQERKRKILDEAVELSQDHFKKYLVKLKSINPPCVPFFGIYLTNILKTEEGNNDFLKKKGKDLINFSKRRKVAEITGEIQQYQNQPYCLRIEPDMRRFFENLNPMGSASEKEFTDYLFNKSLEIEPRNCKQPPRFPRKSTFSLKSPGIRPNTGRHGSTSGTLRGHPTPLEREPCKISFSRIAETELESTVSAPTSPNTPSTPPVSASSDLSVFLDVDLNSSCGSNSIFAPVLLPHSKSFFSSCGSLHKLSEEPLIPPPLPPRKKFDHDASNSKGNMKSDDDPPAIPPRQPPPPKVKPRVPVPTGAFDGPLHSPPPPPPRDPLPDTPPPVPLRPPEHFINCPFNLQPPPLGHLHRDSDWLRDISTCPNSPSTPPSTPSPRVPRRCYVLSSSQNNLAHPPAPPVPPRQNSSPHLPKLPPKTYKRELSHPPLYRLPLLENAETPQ
# SW-620 = experiment: Antiproliferative activity against human SW620 cells harboring KRAS G12V mutant assessed as cell growth inhibition incubated for 7 days by CellTiter-Glo 3D cell viability assay; assay type: functional, cell-based; settings: SW-620, 168 h
# [2] = molecular target: von Hippel-Lindau disease tumor suppressor/Son of sevenless homolog 1/GTPase KRas (Homo sapiens) (UniProt Q07889+P01116+P40337); experiment: Protac activity at SOS1/KRAS E3 ligase in human NCI-H358 cells assessed as KRAS protein level at 2.5 uM measured after 24 hr by […] analysis; assay type: cell-based
# Chain of von Hippel-Lindau disease tumor suppressor/Son of sevenless homolog 1/GTPase KRas (Homo sapiens) (P01116 whole entry, looked up): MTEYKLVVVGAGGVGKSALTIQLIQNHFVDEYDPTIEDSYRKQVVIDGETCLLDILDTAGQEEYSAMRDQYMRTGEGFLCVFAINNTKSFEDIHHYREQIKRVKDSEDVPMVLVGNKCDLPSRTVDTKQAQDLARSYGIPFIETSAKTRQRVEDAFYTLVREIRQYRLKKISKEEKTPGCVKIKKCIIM
# Chain of von Hippel-Lindau disease tumor suppressor/Son of sevenless homolog 1/GTPase KRas (Homo sapiens) (P40337 whole entry, looked up): as the sequence (P40337 whole entry, looked up) above
# Chain of von Hippel-Lindau disease tumor suppressor/Son of sevenless homolog 1/GTPase KRas (Homo sapiens) (Q07889 whole entry, looked up): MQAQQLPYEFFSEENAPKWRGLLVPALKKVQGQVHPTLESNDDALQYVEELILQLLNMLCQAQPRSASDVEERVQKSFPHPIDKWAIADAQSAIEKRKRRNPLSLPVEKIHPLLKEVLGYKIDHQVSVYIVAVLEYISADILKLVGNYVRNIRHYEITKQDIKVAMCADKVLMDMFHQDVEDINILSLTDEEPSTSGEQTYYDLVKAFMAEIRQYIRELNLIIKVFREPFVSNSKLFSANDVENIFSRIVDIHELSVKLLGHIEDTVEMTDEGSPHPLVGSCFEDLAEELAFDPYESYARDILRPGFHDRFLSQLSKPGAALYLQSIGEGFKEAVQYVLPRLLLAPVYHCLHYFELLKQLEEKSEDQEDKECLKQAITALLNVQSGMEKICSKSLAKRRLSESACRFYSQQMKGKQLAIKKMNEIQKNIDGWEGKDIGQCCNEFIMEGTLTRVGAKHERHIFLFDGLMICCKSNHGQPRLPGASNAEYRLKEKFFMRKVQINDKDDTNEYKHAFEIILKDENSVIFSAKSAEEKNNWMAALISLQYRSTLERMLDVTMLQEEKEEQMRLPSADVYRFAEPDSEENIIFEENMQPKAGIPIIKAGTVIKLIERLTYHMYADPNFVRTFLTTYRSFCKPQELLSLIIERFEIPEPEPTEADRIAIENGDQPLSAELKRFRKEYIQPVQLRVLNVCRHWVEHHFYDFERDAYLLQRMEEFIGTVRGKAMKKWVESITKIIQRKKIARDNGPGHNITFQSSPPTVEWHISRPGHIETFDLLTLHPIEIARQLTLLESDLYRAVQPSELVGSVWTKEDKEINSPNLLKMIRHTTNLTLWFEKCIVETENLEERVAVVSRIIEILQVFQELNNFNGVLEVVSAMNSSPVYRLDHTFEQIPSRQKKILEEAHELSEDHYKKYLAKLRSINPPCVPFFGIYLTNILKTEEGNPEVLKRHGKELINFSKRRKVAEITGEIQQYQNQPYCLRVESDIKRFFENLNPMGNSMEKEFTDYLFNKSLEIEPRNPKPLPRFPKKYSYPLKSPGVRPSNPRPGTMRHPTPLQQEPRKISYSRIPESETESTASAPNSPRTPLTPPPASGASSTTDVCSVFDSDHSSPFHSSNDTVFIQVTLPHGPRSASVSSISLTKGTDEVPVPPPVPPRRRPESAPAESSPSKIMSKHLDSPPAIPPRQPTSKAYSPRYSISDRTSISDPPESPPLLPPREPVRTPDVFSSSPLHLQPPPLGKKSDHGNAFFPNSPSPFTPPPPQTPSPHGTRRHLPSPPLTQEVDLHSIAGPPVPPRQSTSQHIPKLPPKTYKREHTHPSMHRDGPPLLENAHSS
# [3] = Effect of compound on human ASPC1 cells harboring KRAS G12D mutant assessed as inhibition of ERK phosphorylation incubated for 24 hr by Western blot analysis; assay type: functional, cell-based; settings: ASPC1, 24 h
# [4] = molecular target: T2, von Hippel-Lindau disease tumor suppressor/Son of sevenless homolog 1 (Homo sapiens, UniProt Q07889+P40337); experiment: Protac activity at VHL/SOS1 in human NCI-H358 cells assessed as SOS1 protein degradation incubated for 24 hr by Western blot analysis; assay type: cell-based
# [5] = molecular target: T2, von Hippel-Lindau disease tumor suppressor/Son of sevenless homolog 1; experiment: Protac activity at VHL/SOS1 in human NCI-H358 cells assessed as SOS1 protein degradation at 0.1 uM incubated for 24 hr by Western blot analysis relative to control; assay type: cell-based
# Target sequence in this assay (P40337 whole entry, looked up): as the sequence (P40337 whole entry, looked up) above
# Target sequence in this assay (Q07889 whole entry, looked up): as the sequence (Q07889 whole entry, looked up) above
# ASPC1 = experiment: Antiproliferative activity against human ASPC1 cells harboring KRAS G12D mutant assessed as cell growth inhibition incubated for 7 days by CellTiter-Glo 3D cell viability assay; assay type: functional, cell-based; settings: ASPC1, 168 h
# [6] = Acute toxicity in BALB/c mouse assessed as change in body weight at 10 mg/kg, ip once daily for 7 days; assay type: organism-based; settings: in vivo, 168 h, time 7 day
# [7] = Observed AUC (infinity) in BALB/c mouse at 10 mg/kg, ip measured after 24 hrs by LC-MS/MS analysis; assay type: ADME, organism-based; parameters: dose 10 mg/kg, time 24 hrs, route ip; settings: in vivo
# Homo sapiens = organism: Homo sapiens; experiment: Binding affinity to SOS1/VCB E3 ligase (unknown origin) assessed as ternary complex formation by measuring hook effect incubated for 1 hr by HTRF assay
# [8] = molecular target: T1, von Hippel-Lindau disease tumor suppressor/Son of sevenless homolog 2 (Homo sapiens); experiment: Protac activity at VHL/SOS2 in human NCI-H358 cells assessed as SOS2 protein degradation at 9.8 to 2500 nM incubated for 24 hr by Western blot analysis; assay type: cell-based; settings: dose 9.8-2500 nM, DDE = dose-dependent effect
# [9] = molecular target: T1, von Hippel-Lindau disease tumor suppressor/Son of sevenless homolog 2 (Homo sapiens); experiment: Protac activity at VHL/SOS2 in human ASPC1 cells assessed as SOS2 mRNA level at 1 uM incubated for 24 to 72 hr by qRT PCR analysis; assay type: cell-based; settings: time 24-72 hrs
# NCI-H358 [10] = experiment: Antitumor activity against human NCI-H358 cells xenografted in BALB/c nude mouse assessed as tumor growth inhibition at 20 mg/kg/day, ip incubated for 21 days; assay type: functional; settings: NCI-H358, 504 h, time 21 day, read-out: TGI
# NCI-H358 [11] = experiment: Antiproliferative activity against human NCI-H358 cells harboring KRAS G12C mutant assessed as growth inhibition incubated for 7 days by CellTiter-Glo 3D cell viability assay; assay type: functional, cell-based; settings: NCI-H358, 168 h
smiles,measurement,setting,value
Cc1cc(Cn2c(N3CC4(CNC4)C3)nc3c(N4CCN(CCCCCCCCC(=O)N[C@H](C(=O)N5C[C@H](O)C[C@H]5C(=O)N[C@@H](C)c5ccc(-c6scnc6C)cc5)C(C)(C)C)CC4)cc(Cl)cc32)cc(C)c1F,Activity,[1],Active
same,IC50,SW-620,0.199 µM
same,Activity,[2],Active
same,IC50,[3],0.0723 µM
same,DC50,[4],0.0984 µM
same,Activity,[5],56.2%
same,IC50,ASPC1,0.307 µM
same,Activity,[6],Non-Toxic
same,AUC(0-inf),[7],4420 ng·h/mL
same,Activity,Homo sapiens,Active
same,Activity,[8],Dde
same,Activity,[9],Active
same,inhibition in vivo at 20 mg/kg/day,NCI-H358 [10],86.1%
same,IC50,NCI-H358 [11],0.525 µM
